Patent publication US4678783A, “Substituted isoquinolinesulfonyl compounds” (Asahi Kasei Kogyo Kabushiki Kaisha, priority 1984, dated 1987)
pEC50: −log10 of the molar value. Like-named read-outs stand apart in the source and are kept apart here.

Tests used:
[1] = Acute Toxicity; conditions: mouse, in vivo; ddY male mice
Description: Acute toxicity of the compounds of the present invention was determined according to the method given below, and the results are shown in Table 15. […] It is known from the results that the acute toxicity of the compounds of the present invention is satisfactorily low.
Using ddY male mice, acute toxicity of the compounds of the present invention was examined according to the method proposed by K. Takagi et al. (K. Takagi and H. Ozawa, "Experimental Techniques in Pharmacology," p200-206 (1960), NANZANDO CO., LTD.).
Acute toxicity test of the compounds of the present invention was effected according to the method as mentioned hereinbefore.

[2] = system: vertebral artery; assay: Blood Flow Volume Increase of Vertebral Artery; format: in vivo, Mongrel dogs; conditions: intravenous, 0.3 mg/kg, anesthetized dogs
Description: (§1) A plethysmographic probe (manufactured and sold by NIHON KODEN CO., LTD.) was mounted on the femoral and vertebral arteries, and blood flow volume was measured by means of a electromagnetic blood flowmeter (type:MF-27, manufactured and sold by NIHON KODEN CO., LTD.). Under these conditions, compounds of the present invention were intravenously administered through a polyethylene tube inserted to a femoral veinlet, and change in blood flow volume was measured by means of the electromagnetic blood flowmeter.
(§2) Effect of the compounds of the present invention on dilation of femoral and vertebral arteries was examined according to the method as mentioned hereinbefore.

[3] = system: basilar artery; assay: Effect on a "Two-Hemorrhage" Canine Model of Delayed Cerebral Vasospasm; format: in vivo, Mongrel dogs; conditions: intravenous infusion over 30 minutes on Day 7
From the text: The isoquinolinesulfonyl compound represented by the formula (I) and salt thereof with a pharmacologically acceptable acid according to the present invention can increase the diameter of a blood vessel, and have an excellent smooth muscle relaxation action for a blood vessel, an excellent flow volume increase action for blood and an antihypertensive action. […] The above-mentioned relaxation action for a blood vessel was confirmed by the relaxation of the mesenteric artery of a rabbit in accordance with the method described later. The above-mentioned flow volume increase action for blood was confirmed by the blood flow volume increase of dog's femoral and vertebral arteries in accordance with the method described later. The above-mentioned antihypertensive action was confirmed by the indirect tail plethysmographic method of systolic blood pressure after oral administration of test drugs using male spontaneously hypertensive rats in accordance with the method described later. The effects of the isoquinolinesulfonyl derivatives of this invention on a "two-hemorrhage" canine model of delayed cerebral vasospasm were examined. The method of inducing a cerebral vasospasm was the same as that reported by Varsos et al. (Journal of Neurosurgery, volume 58, p11-17, 1983). […] As far as is known, these isoquinolinesulfonyl derivatives are the first drugs which can reverse "two-hemorrhage" cerebral vasospasm by its systemic use.
Mongrel dogs of either sex weighing 7 to 11 kg were used. All procedures were performed under anesthesia with sodium pentobarbital (20 to 30 mg/kg, intravenous administration) after premedication with ketamine hydrochloride (12 mg/kg, intramuscular administration) and spontaneous respiration through an endotracheal intubation.
The method of inducing a "two-hemorrhage" canine model of subarachnoid hemorrhage was essentially the same as that reported by Varsos et al. (Journal of Neurosurgery, volume 58, p 11-17, 1983); two successive administrations were effected, two days apart (on Day 1 and Day 3), of fresh autogenous blood into the cisterna magna. A control angiogram was taken by a direct puncture of the vertebral artery on Day 1 before the blood injection. The second angiogram was made to confirm the presence of a vasospasm on Day 7.
On Day 7, after the occurrence of a chronic vasospasm was confirmed by the second angiogram, the compounds of the present invention were intrvenously infused from the femoral vein with a Harvard pump over a period of 30 minutes. Angiograms were taken from the initiation of the infusion.
The diameter of the basilar artery was measured on the angiogram by means of a microdensitometer (SAKURA DENSITOMETER PD-7R). The effect on this cerebral vasospasm model of the compounds of the present invention was expressed as an increased percentage of the diameter after the infusion of the compounds of the present invention to that before the infusion.
Effect of the compounds of the present invention on a "two-hemorrhage" canine model of delayed cerebral vesospasm was examined according to the method as mentioned hereinbefore.

[4] = system: femoral artery; assay: Blood Flow Volume Increase of Femoral Artery; format: in vivo, Mongrel dogs; conditions: intravenous, 0.3 mg/kg, anesthetized dogs
Description: as §1, §2

[5] = system: male spontaneously hypertensive rats (SHR); assay: Reduction of Blood Pressure (systolic, tail plethysmographic method, oral); format: in vivo, rat (SHR, Wister Kyoto); conditions: 100 mg/kg
Description: Male spontaneously hypertensive rats (SHR, Wister Kyoto) weighing 300 to 350 g were used. Systolic blood pressure was measured indirectly by the tail plethysmographic method in conscious SHR, just prior to, and 1, 2, 4 and 6 hours after oral administration of test drugs. Test drugs, dissolved in deionized water, were administered orally in a volume of 10 ml-solution/kg-rat. Reduction in systolic blood pressure (ΔP, mmHg) was calculated by substracting a systolic blood pressure after administration from that just prior to administration.
Effect of the compounds of the present invention on reduction of blood pressure was examined according to the method as mentioned hereinbefore.

[6] = system: mesenteric artery of a rabbit; assay: Relaxation of Mesenteric Artery (KCl-contracted spiral strip); set-up: species or system rabbit of Japanese local variety; conditions: Oryctolagus cuniculus
Description: A rabbit of Japanese local variety weighing about 3 kg was subjected to blood-letting to death. Then, abdomen of the rabbit was dissected to pick up a mesenteric artery. […] Thus, the shrinkage and relaxation of the artery was ready to be measured as a load on the transducer. To the organ bath, KCl was added in an amount which makes the artery shrink at a half length that in 15 to 20 mM aqueous solution. Then, hydrochlorides of the compounds of the present invention were added to the organ bath to observe relaxation effect on the artery.
Effect of the compounds of the present invention on relaxation of mesenteric artery was examined according to the method as mentioned hereinbefore.

SMILES | LD50 [1] [mg/kg] | Increase in vertebral artery blood flow [2] [%] | Increase in diameter of basilar artery ([3]; 3 mg/kg) [%] | Increase in diameter of basilar artery ([3]; 10 mg/kg) [%] | Increase in femoral artery blood flow [4] [%] | ΔPmax (maximally reduced blood pressure) [5] [mmHg] | pEC50 ([6]; read-out: ED50) | Increase in diameter of basilar artery ([3]; 1 mg/kg) [%] | pEC50 ([6]; concentration of the hydrochloride attaining 50% of complete relaxation, rabbit mesenteric artery contracted with KCl, read-out: ED50 (the source's name))
O=S(=O)(c1cccc2c(O)nccc12)N1CCCNCC1 [Compound (83), 1-(1-hydroxy-5-isoquinolinesulfonyl)homopiperazine] | 145 | 48 | 19 | 20 | 30 | 42 | 5.52 |  | 
O=S(=O)(c1cccc2cnccc12)N1CCCNCC1 [Compound (1), 1-(5-isoquinolinesulfonyl)homopiperazine] | 73.5 | 160 | 33 | 45 | 48 | 80 |  | 21 | 6.10
